Measured values as given in patent publication US10059674B2, “Design, synthesis, and biological evaluation of 1-methyl-1, 4-dihyrdoindeno[1,2-C]pyrazole analogues as potential anticaner agents targeting tubulin colchicine binding site” (ACT PHARMA CO., LTD., priority 2016, dated 2018).

Assays:
tubulin = assay: Tubulin polymerization experiment (Cytoskeleton Tubulin Polymerization Assay Kit); assay type: biochemical
Description: The tubulin polymerization experiment is carried out according to the specifications of Tubulin Polymerization Assay Kit of Cytoskeleton Corporation.

[1] = In vivo pharmacokinetic test, drug concentration in blood plasma by LC-MS/MS; design: species or system SD rats; settings: for Drug concentration in blood plasma / concentration at 24 h: 24 h; for HL_Lambda_z / Cl—F—pred / F: male SD rats
Description: 2. Test animal: SD rats, which are 284-304 g before the test, and bought from Shanghai Xipuer-Bikai laboratory animal Co., Ltd. with production license No. SCXK (Hu) 2013-0016, and laboratory animal certificate Nos. 2008001658223 and 2008001658296.
2.85 mg of compound LL-01 is weighed, and then put into a glass bottle; 0.687 mL of DMSO is added into the glass bottle, and ultrasonic treatment is carried out for 2 min; next, 2.062 mL of Solutol HS 15 is added thereto, and ultrasonic treatment is carried out for 4 min; and then 10.995 mL of PBS is added thereto, and ultrasonic treatment is carried out for 8 min after eddying. This test substance is numbered 20160324-RW-01, 12.74 mg of compound LL-01 is weighed, and then put into a glass bottle; 0.614 mL of DMSO is added into the glass bottle, and ultrasonic treatment is carried out for 2 min; next, 1.843 mL of Solutol HS 15 is added thereto, and ultrasonic treatment is carried out for 4 min; and then 9.830 mL of PBS is added thereto, and ultrasonic treatment is carried out for 8 min after eddying. This test substance is numbered 20160324-RW-02,
The dosage of intravenous administration is 1 mg/kg, while the dosage of oral administration is 10 mg/kg. A night of fasting is required before administration, and feeding should be carried out 4 hours later after administration.
Blood is collected (about 150-200 uL) at every time points of 0.083 (only vein), 0.25, 0.5, 1, 2, 4, 8, and 24 hours after administration through orbital venous plexus puncture into EDTA-K2 (20%, and 2 μL) anticoagulant tubes, respectively; the blood samples are centrifuged 8 min at 6000 rpm in 1 h (placed on wet ice before being centrifuged), and the supernatant, namely blood plasma is put into −20° C. low-temperature conservation for LC-MS/MS analysis later.
The content of compound LL-01 in SD rat blood plasma is detected by use of LC-MS/MS method.
Computer program Microsoft Office Excel 2007 (Microsoft, USA) is used for data processing, and drawing. A statistical moment method of WinNolin 6.4 processing software is used to calculate pharmacokinetic parameters.

[2] = SD, rat, plasma, po, 10 mg/kg, SD rats, oral 10 mg/kg, Mean
[3] = SD, rat, plasma, po, 10 mg/kg, SD rats, oral 10 mg/kg, animal 201M
[4] = SD, rat, plasma, po, 10 mg/kg, SD rats, oral 10 mg/kg, animal 202M
[5] = SD, rat, plasma, po, 10 mg/kg, SD rats, oral 10 mg/kg, animal 203M
[6] = single oral 10 mg/kg, animal 201M
[7] = single oral 10 mg/kg, animal 202M
[8] = single oral 10 mg/kg, animal 203M
[9] = male, SD, rat, plasma, iv, 1 mg/kg, SD rats, intravenous 1 mg/kg, Mean
[10] = male, SD, rat, plasma, iv, 1 mg/kg, SD rats, intravenous 1 mg/kg, animal 101M
[11] = male, SD, rat, plasma, iv, 1 mg/kg, SD rats, intravenous 1 mg/kg, animal 102M
[12] = male, SD, rat, plasma, iv, 1 mg/kg, SD rats, intravenous 1 mg/kg, animal 103M

Structure (SMILES): CCOc1cccc(Nc2nn(C)c3c2Cc2cc(OCC)c(OCC(N)=O)cc2-3)c1 [LL-01]
- inhibition of tubulin polymerization (in words) (tubulin; FIGS. 1 and 2): able to inhibit tubulin polymerization
- IC50 (tubulin; read-out: tubulin polymerization inhibiting IC50): 4.62 µM
- Drug concentration in blood plasma ([1]; SD rats, intravenous 1 mg/kg, animal 101M): BLQ
- Drug concentration in blood plasma ([1]; SD rats, intravenous 1 mg/kg, animal 102M): BLQ
- Drug concentration in blood plasma ([1]; SD rats, intravenous 1 mg/kg, animal 103M): BLQ
- concentration at 0.25 h [1, 2]: 280 ng/mL
- concentration at 0.25 h [1, 3]: 159 ng/mL
- concentration at 0.25 h [1, 4]: 466 ng/mL
- concentration at 0.25 h [1, 5]: 216 ng/mL
- concentration at 0.5 h [1, 2]: 558 ng/mL
- concentration at 0.5 h [1, 3]: 374 ng/mL
- concentration at 0.5 h [1, 4]: 959 ng/mL
- concentration at 0.5 h [1, 5]: 339 ng/mL
- concentration at 1 h [1, 2]: 917 ng/mL
- concentration at 1 h [1, 3]: 869 ng/mL
- concentration at 1 h [1, 4]: 1100 ng/mL
- concentration at 1 h [1, 5]: 778 ng/mL
- concentration at 8 h [1, 2]: 604 ng/mL
- concentration at 8 h [1, 4]: 916 ng/mL
- concentration at 8 h [1, 5]: 446 ng/mL
- concentration at 24 h [1, 2]: 26.9 ng/mL
- concentration at 24 h [1, 3]: 46.8 ng/mL
- concentration at 24 h [1, 4]: 17.4 ng/mL
- concentration at 24 h [1, 5]: 16.6 ng/mL
- HL_Lambda_z ([1]; single intravenous 1 mg/kg, Mean): 1.00 h
- HL_Lambda_z ([1]; single intravenous 1 mg/kg, animal 101M): 1.06 h
- HL_Lambda_z ([1]; single intravenous 1 mg/kg, animal 102M): 1.00 h
- HL_Lambda_z ([1]; single intravenous 1 mg/kg, animal 103M): 0.94 h
- Cl—F—pred ([1]; single oral 10 mg/kg, Mean): 14.3 mL/min/kg
- F ([1]; single oral 10 mg/kg, Mean): 41.02%
- HL_Lambda_z ([1]; single oral 10 mg/kg, Mean): 3.60 h
- Cl—F—pred [1, 6]: 15.2 mL/min/kg
- F [1, 6]: 35.12%
- HL_Lambda_z [1, 6]: 4.35 h
- Cl—F—pred [1, 7]: 9.33 mL/min/kg
- F [1, 7]: 58.28%
- HL_Lambda_z [1, 7]: 2.95 h
- Cl—F—pred [1, 8]: 18.3 mL/min/kg
- F [1, 8]: 29.66%
- HL_Lambda_z [1, 8]: 3.50 h
- concentration at 0.08 h [1, 9]: 2600 ng/mL
- concentration at 0.08 h [1, 10]: 2720 ng/mL
- concentration at 0.08 h [1, 11]: 2400 ng/mL
- concentration at 0.08 h [1, 12]: 2690 ng/mL
- concentration at 0.25 h [1, 9]: 1950 ng/mL
- concentration at 0.25 h [1, 10]: 2020 ng/mL
- concentration at 0.25 h [1, 11]: 1920 ng/mL
- concentration at 0.25 h [1, 12]: 1910 ng/mL
- concentration at 0.5 h [1, 9]: 1630 ng/mL
- concentration at 0.5 h [1, 10]: 1760 ng/mL
- concentration at 0.5 h [1, 11]: 1390 ng/mL
- concentration at 0.5 h [1, 12]: 1720 ng/mL
- concentration at 1 h [1, 9]: 884 ng/mL
- concentration at 1 h [1, 10]: 876 ng/mL
- concentration at 1 h [1, 11]: 842 ng/mL
- concentration at 1 h [1, 12]: 934 ng/mL
- concentration at 2 h [1, 9]: 428 ng/mL
- concentration at 2 h [1, 10]: 398 ng/mL
- concentration at 2 h [1, 11]: 372 ng/mL
- concentration at 2 h [1, 12]: 512 ng/mL
- concentration at 4 h ([1]; male, SD, rat, plasma, iv, 1 mg/kg, SD rats, intravenous 1 mg/kg, 4 h, Mean): 82.5 ng/mL
